According to paper PMC4648982 (Chemistry Central Journal, 2015):
Structures can show the parent of a compound that is named as a salt. Where two headings read alike, the source gives them in different places.

Target: jack bean urease (Canavalia ensiformis, UniProt P07374)
Assay: biochemical
Conditions: for urease inhibitory activity in words: in vitro assay, authors' verbal grading
Protocol: Reaction mixture comprising of 25μL of enzyme (jack bean urease) (1 unit/well) solution and 55 μL of phosphate buffers (4 mM) containing 100 mM urea were incubated with 5 μL of test compounds dissolved in methanol (0.5 mM concentration) at 30 °C for 15 min in 96-well plates. Urease activity was determined by measuring ammonia production using the indophenol method as described by Weather burn. Briefly, 45 μl each phenol reagent (1 % w/v phenol and 0.005 % w/v sodium nitroprussside) and 70 μL of alkali reagent(0.5 % w/v NaOH and 0.1 % active chloride NaOCl) were added to each well. The increasing absorbance at 630 nm was measured afther 50 min, using a microplate reader (Molecular Device, USA). All reactions were performed in triplicate in a final volume of 200 μL. The results (change in absorbance per min) were processed by using softMax Pro software (molecular Device, USA). The entire assays were performed at pH 6.8. Percentage inhibitions were calculated from the formula 100 − (ODtestwell/ODcontrol) × 100. Thiourea was used as the standard inhibitor of urease.

Sequence of jack bean urease (P07374 whole entry, looked up): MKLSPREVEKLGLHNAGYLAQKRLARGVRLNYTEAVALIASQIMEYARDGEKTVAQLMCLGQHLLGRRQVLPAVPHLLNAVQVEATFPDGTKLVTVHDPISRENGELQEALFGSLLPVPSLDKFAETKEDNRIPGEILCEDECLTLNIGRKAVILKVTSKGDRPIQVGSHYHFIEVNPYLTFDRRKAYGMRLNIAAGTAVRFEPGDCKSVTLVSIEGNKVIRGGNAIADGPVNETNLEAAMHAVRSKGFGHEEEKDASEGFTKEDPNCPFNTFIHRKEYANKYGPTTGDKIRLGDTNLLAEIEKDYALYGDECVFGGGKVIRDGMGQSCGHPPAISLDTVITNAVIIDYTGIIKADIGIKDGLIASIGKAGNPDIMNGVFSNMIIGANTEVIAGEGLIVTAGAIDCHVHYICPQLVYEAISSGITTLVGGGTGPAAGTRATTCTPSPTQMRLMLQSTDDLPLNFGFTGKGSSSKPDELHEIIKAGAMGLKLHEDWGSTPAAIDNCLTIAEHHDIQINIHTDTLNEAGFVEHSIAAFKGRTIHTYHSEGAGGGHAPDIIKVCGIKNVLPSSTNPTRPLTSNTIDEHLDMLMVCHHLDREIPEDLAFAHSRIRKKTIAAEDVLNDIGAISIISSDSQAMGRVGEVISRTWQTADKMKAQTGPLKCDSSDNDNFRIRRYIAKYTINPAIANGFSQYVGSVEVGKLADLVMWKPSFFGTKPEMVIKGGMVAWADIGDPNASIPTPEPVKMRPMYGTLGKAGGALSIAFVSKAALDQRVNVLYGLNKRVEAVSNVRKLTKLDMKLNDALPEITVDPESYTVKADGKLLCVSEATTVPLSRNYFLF

Molecule | IC50 (jack bean urease, indophenol method, pH 6.8, 30 °C, 15 min incubation, triplicate, read-out: Urease inhibition IC50 ± SEM) [µM] | IC50 [µM] | urease inhibitory activity in words
2-((2-Hydroxy-4,4-dimethyl-6-oxocyclohex-1-en-1-yl)(m-tolyl)methyl)-5,5-dimethyl-3-oxocyclohex-1-enolate diethylaminium salt [Compound 5d] | 51.3 ± 0.45 |  | 
Cn1c(O)c(C(c2ccc(C=O)cc2)c2c(O)n(C)c(=O)n(C)c2=O)c(=O)n(C)c1=O [Compound 4a, 4-(bis(6-Hydroxy-1,3-dimethyl-2,4-dioxo-1,2,3,4-tetrahydropyrimidin-5-yl)methyl)benzaldehyde diethylaminium salt] |  | 39.3 ± 0.36 | 
Cc1cccc(C(c2c(O)n(C)c(=O)n(C)c2=O)c2c(O)n(C)c(=O)n(C)c2=O)c1 [Compound 4b, 5,5′-(3-Tolylmethylene)bis(1,3-dimethylpyrimidine-2,4,6(1H,3H,5H)-trione) diethylaminium salt] |  | 34.4 ± 1.57 | 
Cn1c(O)c(C(c2ccc([N+](=O)[O-])cc2)c2c(O)n(C)c(=O)n(C)c2=O)c(=O)n(C)c1=O [Compound 4c, 5,5′-((4-Nitrophenyl)methylene)bis(1,3-dimethylpyrimidine-2,4,6(1H,3H,5H)-trione)diethylaminium salt] |  | 54.2 ± 0.47 | 
COc1ccc(C(c2c(O)n(C)c(=O)n(C)c2=O)c2c(O)n(C)c(=O)n(C)c2=O)cc1 [Compound 4d, 5,5′-((4-Methoxyphenyl)methylene)bis(1,3-dimethylpyrimidine-2,4,6(1H,3H,5H)-trione) diethylaminium salt] |  | 31.6 ± 0.79 | 
Cn1c(O)c(C(c2cccc(Br)c2)c2c(O)n(C)c(=O)n(C)c2=O)c(=O)n(C)c1=O [Compound 4e, 5,5′-((3-Bromophenyl)methylene)bis(1,3-dimethylpyrimidine-2,4,6(1H,3H,5H)-trione) diethylaminium salt] |  | 27.5 ± 0.12 | 
Cn1c(O)c(C(c2ccc(O)cc2)c2c(O)n(C)c(=O)n(C)c2=O)c(=O)n(C)c1=O [Compound 4f, 5,5′-((4-hydroxyphenyl)methylene)bis(6-hydroxy-1,3-dimethylpyrimidine-2,4(1H,3H)-dione) diethylaminium salt] |  | 54.2 ± 0.83 | 
Cc1ccc(C(c2c(O)n(C)c(=O)n(C)c2=O)c2c(O)n(C)c(=O)n(C)c2=O)cc1 [Compound 4g, 5,5′-(p-Tolylmethylene)bis(1,3-dimethylpyrimidine-2,4,6(1H,3H,5H)-trione) diethylaminium salt] |  | 28.5 ± 0.41 | 
Cn1c(O)c(C(c2ccc3ccccc3c2)c2c(O)n(C)c(=O)n(C)c2=O)c(=O)n(C)c1=O [Compound 4h, 5,5′-(Naphthalen-2-ylmethylene)bis(1,3-dimethylpyrimidine-2,4,6(1H,3H,5H)-trione) diethylaminium salt] |  | 40.3 ± 0.32 | 
Cc1ccc(C(c2c(O)[nH]c(=O)[nH]c2=O)c2c(O)[nH]c(=O)[nH]c2=O)cc1 [Compound 4i, 5,5′-(p-Tolylmethylene)bis(6-hydroxypyrimidine-2,4(1H,3H)-dione) diethylaminium salt] |  | 17.6 ± 0.23 | most active
O=c1[nH]c(O)c(C(c2ccc(Cl)cc2)c2c(O)[nH]c(=O)[nH]c2=O)c(=O)[nH]1 [Compound 4j, 5,5′-((4-Chlorophenyl)methylene)bis(6-hydroxypyrimidine-2,4(1H,3H)-dione) diethylaminium salt] |  | 22.3 ± 0.73 | active
COc1ccc(C(c2c(O)[nH]c(=O)[nH]c2=O)c2c(O)[nH]c(=O)[nH]c2=O)cc1 [Compound 4k, 5,5′-((4-Methoxyphenyl)methylene)bis(6-hydroxypyrimidine-2,4(1H,3H)-dione) diethylaminium salt] |  | 25.8 ± 0.23 | 
O=c1[nH]c(O)c(C(c2ccc3ccccc3c2)c2c(O)[nH]c(=O)[nH]c2=O)c(=O)[nH]1 [Compound 4l, 5,5′-(Naphthalen-2-ylmethylene)bis(6-hydroxypyrimidine-2,4(1H,3H)-dione) diethylaminium salt] |  | 22.7 ± 0.2 | 
